{"source": "patent US20090074926A1", "about": "“Preservation of acidic beverages” (PURAC BIOCHEM B.V., priority 2007, published 2009)", "format_in_all_cases": "cell-based", "key": {"a collection of yeasts": {"system": "a collection of yeasts", "conditions": "pH 3.5", "description": "Cultures were grown in GPY-broth that contained per liter demineralised-water: 40 g glucose, 5 g peptone and 5 g yeast extract, the pH of the medium to 3.5 with 2 N HCl. Cultures were grown in screw-capped tubes for at least 48 hours at 25° C. Pichia membranifaciens MUCL 27794, CBS 8427 and CBS 5567, Rhodotorula glutinis CBS 2367, Rhodotorula mucilaginosa CBS 8054 and CBS 2401 and Zygosaccharomyces bailii MUCL 27812 were cultured in shake flasks\nThe inhibition tests were carried out in sterile 96-well microtiter plates. Increasing amounts (0 to 100 μL in 10 steps of 10 μL) of a sterile stock solution of each compound were transferred to sterile microtiter plates. Next 100 μL of filter sterilized double strength GPY-broth was added and the volume of each well was adjusted to 200 μL with sterile demineralized-water. Plates were inoculated with 2 μL of two days old cultures and incubated for 96 hours at 25° C. Growth was quantified by measuring the optical density at 595 nm in a microplate reader. All the experiments were carried out in duplicate."}, "[1]": {"system": "Schizosaccharomyces pombe", "test": "Screening of combinations of two inhibitors, outgrowth in GPY-broth pH 3.5", "description": "These combination tests were carried out in sterile 96-well microtiter plates. Sterile GPY-broth was prepared with increasing quantities of two different inhibitors. The concentrations of each inhibitor were presented in 8 equal concentration steps that ranged from 0 to 1-2 times the MIC value of a particular yeast for a particular inhibitor resulting in 64 different media. […] of each medium was transferred to a panel of a sterile 96-well microtiter plate. Completed well plates were stored at 4° C. until further use.\nPlates were inoculated with 2 μL of two days old cultures and incubated for 96 hours at 25° C. Growth was quantified by measuring the optical density at 595 nm in a microplate reader and expressed as a percentage of the growth in the control, which contained no inhibitor. All the experiments were carried out in duplicate."}, "Saccharomyces cerevisiae": {"system": "Saccharomyces cerevisiae", "test": "Screening of combinations of three ingredients, outgrowth in GPY-broth pH 3.5", "description": "These combination tests were also carried out in sterile 96-well microtiter plates. Sterile GPY-broth was prepared with increasing quantities of inhibitors. For the first dimension the concentrations of the first inhibitor was presented in 8 equal concentration steps. For the second dimension a fixed ratio of two other inhibitors was chosen. This mixture was presented in 8 equal concentration steps resulting in 64 different media. […] of each medium was transferred to a panel of a sterile 96-well microtiter plate. Completed well plates were stored at 4° C. until further use. Plates were inoculated with 2 μL of two days old cultures and incubated for 96 hours at 25° C. Growth was quantified by measuring the optical density at 595 nm in a microplate reader and expressed as a percentage of the growth in the control, which contained no inhibitor. All the experiments were carried out in duplicate."}}, "note": "Read-outs that look alike come from different tables or passages of the source.", "data": [{"smiles": "C/C=C/C=C/C(=O)O", "note": "[Sorbic acid]", "values": [{"measurement": "MICavg (Average Minimal Inhibitory Concentration)", "setting": "a collection of yeasts", "result": "0.030 ± 0.020", "unit": "% w/v"}, {"measurement": "MICmax (Maximum MIC)", "setting": "a collection of yeasts", "result": 0.07, "unit": "% w/v"}, {"measurement": "MICmax/MICavg", "setting": "a collection of yeasts", "result": 2.5}]}, {"smiles": "C/C=C/C=C/C(=O)[O-].[K+]", "note": "[Potassium sorbate, potassium sorbate]", "values": [{"measurement": "Outgrowth (% of outgrowth at zero concentration inhibitor)", "setting": "[1]; ε-polylysine 0, potassium sorbate 0.007 (% w/v)", "result": 81, "unit": "%"}, {"measurement": "Outgrowth (% of outgrowth at zero concentration inhibitor)", "setting": "[1]; ε-polylysine 0, potassium sorbate 0.014 (% w/v)", "result": 69, "unit": "%"}, {"measurement": "Outgrowth (% of outgrowth at zero concentration inhibitor)", "setting": "[1]; ε-polylysine 0, potassium sorbate 0.021 (% w/v)", "result": 56, "unit": "%"}, {"measurement": "Outgrowth (% of outgrowth at zero concentration inhibitor)", "setting": "[1]; ε-polylysine 0, potassium sorbate 0.028 (% w/v)", "result": 44, "unit": "%"}, {"measurement": "Outgrowth (% of outgrowth at zero concentration inhibitor)", "setting": "[1]; ε-polylysine 0, potassium sorbate 0.035 (% w/v)", "result": 30, "unit": "%"}, {"measurement": "Outgrowth (% of outgrowth at zero concentration inhibitor)", "setting": "[1]; ε-polylysine 0, potassium sorbate 0.042 (% w/v)", "result": 20, "unit": "%"}, {"measurement": "Outgrowth (% of outgrowth at zero concentration inhibitor)", "setting": "[1]; ε-polylysine 0, potassium sorbate 0.049 (% w/v)", "result": 7, "unit": "%"}]}, {"smiles": "O=C(O)C=Cc1ccccc1", "note": "[Cinnamic acid, cinnamic acid]", "values": [{"measurement": "Comparison of inhibitory potency (in words)", "setting": "a collection of yeasts; MIC values of a number of yeasts", "result": "more effective than sorbic acid"}, {"measurement": "MICavg (Average Minimal Inhibitory Concentration)", "setting": "a collection of yeasts; collection of yeasts", "result": "0.009 ± 0.007", "unit": "% w/v"}, {"measurement": "MICmax (Maximum MIC)", "setting": "a collection of yeasts; collection of yeasts", "result": 0.03, "unit": "% w/v"}, {"measurement": "MICmax/MICavg", "setting": "a collection of yeasts; collection of yeasts", "result": 3.0}, {"measurement": "Outgrowth (% of outgrowth at zero concentration inhibitor)", "setting": "Saccharomyces cerevisiae; MCE 8060-ε-polylysine mixture (ratio 18.9) 0, cinnamic acid 0.002 (% w/v)", "result": 76, "unit": "%"}, {"measurement": "Outgrowth (% of outgrowth at zero concentration inhibitor)", "setting": "Saccharomyces cerevisiae; MCE 8060-ε-polylysine mixture (ratio 18.9) 0, cinnamic acid 0.004 (% w/v)", "result": 44, "unit": "%"}, {"measurement": "Outgrowth (% of outgrowth at zero concentration inhibitor)", "setting": "Saccharomyces cerevisiae; MCE 8060-ε-polylysine mixture (ratio 18.9) 0, cinnamic acid 0.006 (% w/v)", "result": 1, "unit": "%"}, {"measurement": "Outgrowth (% of outgrowth at zero concentration inhibitor)", "setting": "Saccharomyces cerevisiae; MCE 8060-ε-polylysine mixture (ratio 18.9) 0, cinnamic acid 0.008 (% w/v)", "result": 0, "unit": "%"}, {"measurement": "Outgrowth (% of outgrowth at zero concentration inhibitor)", "setting": "Saccharomyces cerevisiae; MCE 8060-ε-polylysine mixture (ratio 18.9) 0, cinnamic acid 0.01 (% w/v)", "result": 2, "unit": "%"}, {"measurement": "Outgrowth (% of outgrowth at zero concentration inhibitor)", "setting": "Saccharomyces cerevisiae; MCE 8060-ε-polylysine mixture (ratio 18.9) 0, cinnamic acid 0.012 (% w/v)", "result": 1, "unit": "%"}, {"measurement": "Outgrowth (% of outgrowth at zero concentration inhibitor)", "setting": "Saccharomyces cerevisiae; MCE 8060-ε-polylysine mixture (ratio 18.9) 0, cinnamic acid 0.014 (% w/v)", "result": 0, "unit": "%"}]}]}
